US5554789A, “Arylpropionic derivative, a process for the preparation and the use thereof as an analgesic agent” (Laboratorios Menarini S.A., priority 1992, dated 1996)
Counter-ions that a name gives are not always drawn. Like-named read-outs stand apart in the source and are kept apart here.

Legend:
Swiss male mice = experiment: Phenylbenzoquinone writhing test (analgesic activity); type: in vivo
[1] = cited from earlier work
[2] = Plasmatic levels of the (+)-(S) enantiomer in humans; conditions: vs (+)-(S)-ketoprofen free acid or double dose of racemic ketoprofen free acid
[3] = Analgesic action (general statements); type: in vivo
Hygroscopicity = type: physicochemical
[4] = Gastrolesive effect in animals
pH in aqueous solution = type: physicochemical
[5] = Toxicity (general statement); conditions: compared with the other derivatives
[6] = Dissolution rate in water; type: physicochemical; conditions: compared with compound (I)
[7] = background; cited from earlier work

CC(C(=O)O)c1cccc(C(=O)c2ccccc2)c1 (racemic) [(R,S)-ketoprofen tromethamine salt]
% Inhibition (analgesic effect, phenylbenzoquinone test) (Swiss male mice; intravenously, 0.30 mg/kg (amount of ketoprofen injected)): 62.9 ± 11.7%

CC(C(=O)O)c1cccc(C(=O)c2ccccc2)c1 (racemic) [(R,S)-ketoprofen, 2-(3-Benzoylphenyl)propionic acid]
analgesic and antipyretic action ([1]; background): potent analgesic and antipyretic action | % Inhibition (analgesic effect, phenylbenzoquinone test) (Swiss male mice; orally, 30 minutes prior to phenylbenzoquinone, 0.30 mg/kg): 50.0 ± 7.8%

C[C@H](C(=O)O)c1cccc(C(=O)c2ccccc2)c1 [(+)-(S)-ketoprofen, (+)-(S)-2-(3-benzoylphenyl)propionic acid]
analgesic action ([1]; vs the racemic, administered doses being equal): faster acting and more potent analgesic than the racemic

C[C@H](C(=O)O)c1cccc(C(=O)c2ccccc2)c1 [I, (+)-(S)-2-(3-benzoylphenyl)propionic acid tromethamine salt]
plasmatic levels of the active (+)-(S) enantiomer [2]: higher plasmatic levels of the active (+)-(S) enantiomer in a far shorter time | analgesic action (onset, response, duration) ([3]; vs racemic ketoprofen): faster onset of analgesic action, an enhanced analgesic response and a longer duration than racemic ketoprofen | analgesic action and response ([3]; vs racemic ketoprofen tromethamine salt): faster action and enhanced analgesic response than the racemic ketoprofen tromethamine salt | hygroscopicity (Hygroscopicity): very low hygroscopicity | analgesic effectiveness compared with racemic ketoprofen (Swiss male mice; phenylbenzoquinone writhing test, intravenous and oral): same analgesic effectiveness as a racemic ketoprofen double dose | gastrolesive effect ([4]; animals, vs (+)-(S)-, (-)-(R)- and racemic ketoprofen): much less gastrolesive | gastrolesive effect ([4]; vs corresponding free acid or racemic ketoprofen): markedly less gastrolesive than the corresponding free acid or the racemic ketoprofen | pH in aqueous solution (pH in aqueous solution): physiologically compatible pH in aqueous solution | toxicity [5]: lower toxicity

C[C@H](C(=O)O)c1cccc(C(=O)c2ccccc2)c1 [L-lysine salt]
dissolution rate [6]: significantly lower

CC(C(=O)O)c1cccc(C(=O)c2ccccc2)c1 (stereo not drawn) [sodium salt]
hygroscopicity [7]: high hygroscopicity
